In US20030113704A1, “Methods for inactivation of pathogens in biological materials” (priority 2000, published 2003):

Tests used:
Serratia liquifaciens = test: Bacterial inactivation in leukoreduced PRBC with Erythrosol (Example 5), S. liquifaciens; type: cell-based; conditions: red cells, 0.2 mM compound, 2 mM glutathione, two hours at RT
[1] = test system: Staphylococcus epidermidis; test: Bacterial inactivation in leukoreduced PRBC with Erythrosol (Example 5), S. epidermidis; type: cell-based; conditions: red cells, 0.2 mM compound, 2 mM glutathione, two hours at RT
[2] = test system: Herpes Simplex Virus (HSV); test: Viral inactivation in leukoreduced PRBC with Erythrosol (Example 5), HSV; type: cell-based; conditions: red cells, 0.003 mM inactivation compound, 3 mM glutathione, two hours at RT
Bacilus subtilis = test: Bacterial inactivation in leukoreduced PRBC with Erythrosol (Example 5), B. subtilis; type: cell-based; conditions: red cells, 0.2 mM compound, 2 mM glutathione, two hours at RT
Yersinia enterocolitica = test: Bacterial inactivation in leukoreduced PRBC with Erythrosol (Example 5), Y. enterocolitica; type: cell-based; conditions: red cells, 0.2 mM compound, 2 mM glutathione, two hours at RT
Listeria monocytogenes = test: Bacterial inactivation in leukoreduced PRBC with Erythrosol (Example 5), L. monocytogenes; type: cell-based; conditions: red cells, 0.2 mM compound, 2 mM glutathione, two hours at RT
Salmonella choleraesuis = test: Bacterial inactivation in leukoreduced PRBC with Erythrosol (Example 5), S. choleraesuis; type: cell-based; conditions: red cells, 0.2 mM compound, 2 mM glutathione, two hours at RT
[3] = test system: Vesicular Stomatitis Virus type Indiana (VSIV); type: cell-based
Deinococcus radiodurans = test: Bacterial inactivation in leukoreduced PRBC with Erythrosol (Example 5), D. radiodurans; type: cell-based; conditions: red cells, 0.2 mM compound, 2 mM glutathione, two hours at RT
Cell-Free HIV = test: Viral inactivation in leukoreduced PRBC with Erythrosol (Example 5), cell-free HIV; type: cell-based, Human Immunodeficiency Virus; conditions: red cells, 0.2 mM inactivation compound, 3 mM glutathione, two hours at RT
Cell-Associated HIV = test: Viral inactivation in leukoreduced PRBC with Erythrosol (Example 5), cell-associated HIV; type: cell-based, Human Immunodeficiency Virus; conditions: red cells, 0.2 mM inactivation compound, 3 mM glutathione, two hours at RT
Staphylococcus aureus = test: Bacterial inactivation in leukoreduced PRBC with Erythrosol (Example 5), S. aureus; type: cell-based; conditions: red cells, 0.2 mM compound, 2 mM glutathione, two hours at RT
[4] = test system: Duck Hepatitis B Virus (DHBV); test: Viral inactivation in leukoreduced PRBC with Erythrosol (Example 5), DHBV; type: cell-based; conditions: red cells, 0.1 mM inactivation compound, 3 mM glutathione, two hours at RT
Bluetongue type 11 Virus = test: Viral inactivation in leukoreduced PRBC with Erythrosol (Example 5), Bluetongue type 11; type: cell-based; conditions: red cells, 0.2 mM inactivation compound, 2 mM glutathione, two hours at RT
Pseudomonas aeruginosa = test: Bacterial inactivation in leukoreduced PRBC with Erythrosol (Example 5), P. aeruginosa; type: cell-based; conditions: red cells, 0.2 mM compound, 2 mM glutathione, two hours at RT
[5] = test system: Bovine Viral Diarrhea Virus (BVDV); test: Viral inactivation in leukoreduced PRBC with Erythrosol (Example 5), BVDV; type: cell-based; conditions: red cells, 0.1 mM inactivation compound, 1 mM glutathione, two hours at RT
Serratia marcescens = test: Bacterial inactivation in leukoreduced PRBC with Erythrosol (Example 5), S. marcescens; type: cell-based; conditions: red cells, 0.2 mM compound, 2 mM glutathione, two hours at RT
Escherichia coli K12 = test: Bacterial inactivation in leukoreduced PRBC with Erythrosol (Example 5), E. coli K12; type: cell-based; conditions: red cells, 0.2 mM compound, 2 mM glutathione, two hours at RT
[6] = test system: Respiratory Synctial Virus (RSV); test: Viral inactivation in leukoreduced PRBC with Erythrosol (Example 5), RSV; type: cell-based; conditions: red cells, 0.2 mM inactivation compound, 2 mM glutathione, two hours at RT

O=C(CCNc1c2ccccc2nc2ccccc12)OCCN(CCCl)CCCl [β-alanine, N-(acridin-9-yl), 2-[bis(2-chloroethyl)amino]ethyl ester]
Log inactivation Serratia liquifaciens (Serratia liquifaciens): 3.8 log
Log inactivation Staphylococcus epidermidis [1]: >6.9 log
Log inactivation HSV [2]: >6.0 log
Log inactivation Bacilus subtilis (Bacilus subtilis): >6.3 log
Log inactivation Yersinia enterocolitica (Yersinia enterocolitica): 7.4 log
Log inactivation Listeria monocytogenes (Listeria monocytogenes): >7.1 log
Log inactivation Salmonella choleraesuis (Salmonella choleraesuis): 4.8 log
Log inactivation VSIV [3]: 5.7 log
Log inactivation Deinococcus radiodurans (Deinococcus radiodurans): >6.0 log
Log inactivation Cell-Free HIV (Cell-Free HIV): >6.5 log
Log inactivation Cell-Associated HIV (Cell-Associated HIV): >6.2 log
Log inactivation Staphylococcus aureus (Staphylococcus aureus): >5.1 log
Log inactivation DHBV [4]: >6.3 log
Log inactivation Bluetongue type 11 (Bluetongue type 11 Virus): 6.0 log
Log inactivation Pseudomonas aeruginosa (Pseudomonas aeruginosa): 4.5 log
Log inactivation BVDV [5]: >7.3 log
Log inactivation Serratia marcescens (Serratia marcescens): 4.1 log
Log inactivation Eseherichia coli K12 (Escherichia coli K12): 7.4 log
Log inactivation RSV [6]: 5.6 log
